Assay results from patent US7514432B2, “Compounds and methods of treating cell proliferative diseases, retinopathies and arthritis” (Exonhit Therapeutics SA, priority 2003, dated 2009).

Tests used:
HMEC1 = experiment: Cell viability assay (MTT), HMEC1; assay type: cell-based, Human; conditions: 10% FBS; for IC50: MTT, 6-day treatment, 1% DMSO
Description: (§1) Table 12: 6-day cell viability assay (MTT) in the presence of 10% Fetal Bovine Serum and 1% DMSO, in HMEC1, HCT116, MDA-MB-231, MCF7 and NIH3T3 cell lines. 3 10^3 to 15 10^3 cells were seeded in 48-well plates in growth medium containing 10% FBS, with or without various concentrations of test compounds. Cell cultures were fed every 3 days with the appropriate media. Cell viability was determined on day 6. Data were analyzed and IC50s were calculated from dose-response curves using GraphPad Prism. Results summarized in the tables are mean±SEM of 1 to 8 independent experiments.
(§2) In order to determine a compound's effect on cell viability, microculture tetrazolium assays (MTT) were performed as described by Carmichael et al. (1996) with modifications. Four human tumoral cell lines, namely HCT116 colon adenocarcinoma, H460 lung carcinoma, MCF-7 and MDA-MB-231 breast carcinoma cell lines, DLD1 colorectal adenocarcinoma, HeLa adenocarcinoma, HepG2 hepatocellular carcinoma. 3 immortalized but non tumorigenic cell lines, namely NIH3T3 mouse fibroblasts (American Type Culture Collection) and primary hepatocytes (Biopredic international), cultured according to their recommendations together with Human Microvasculature Endothelial Cell line HMEC1 (National Center for Infectious Diseases). Briefly, cells were seeded in 48-well plates 24 hours before drug addition. Cells were treated with 0 to 200 μM (11 concentrations) of compound solubilized in DMSO, adjusting the final concentration of DMSO to 1% in the well. 16 hours, and three or six days after treatment, 0.5 mg/ml MTT (Sigma) was added to the medium and cells were incubated for 1-5 hours at 37° C. before solubilization of formazan crystals in 100% DMSO. Absorbance was measured using a spectrophotometer at a wavelength of 550 nm. Data was analyzed using the GraphPad Prism software (GraphPad Software, Inc.), and IC50 (dose leading to 50% cell death) was calculated from the dose-response curves.

HCT116 = experiment: Cell viability assay (MTT), HCT116; assay type: cell-based, human; conditions: 1% DMSO
Description: as §1
(§3) Table 13: 6-day cell viability assay (MTT) in the presence of 0.5% Fetal Bovine Serum and 1% DMSO, in HCT116 and MDA-MB-231 cell lines. 7.5 10^4 to 15 10^4 cells were seeded in 48-well plates in growth medium containing 10% FBS, with or without various concentrations of test compounds. Cell cultures were fed every 3 days with the appropriate media. Cell viability was determined on day 6. Data were analyzed and IC50s were calculated from dose-response curves using GraphPad Prism. Results summarized in the tables are mean±SEM of 1 to 2 independent experiments.
(§4) Table 14: 3-day cell viability assay (MTT) in the presence of 10% Fetal Bovine Serum and 1% DMSO, in DLD1, HCT116, MDA-MB-231, MCF7 and HeLa cells. 7.5 10^3 to 1.5 10^4 cells were seeded in 48-well plates in growth medium containing 10% FBS, with or without various concentrations of test compounds. Data were analyzed and IC50s were calculated from dose-response curves using GraphPad Prism. Results summarized in the tables are mean±SEM of 1 to 7 independent experiments.
(§5) Table 15: 16-hour cell viability assay (MTT) in the presence of 10% Fetal Bovine Serum and 1% DMSO, in HCT116, MDA-MB-231, NIH3T3, HepG2 and primary hepatocytes. 5 10^4 to 10 10^4 cells were seeded in 48-well plates in growth medium containing 10% FBS, with or without various concentrations of test compounds. Data were analyzed and IC50s were calculated from dose-reponse curves using GraphPad Prism. Results summarized in the tables are mean±SEM of 1 to 2 independent experiments.
as §2

MDA-MB-231 [1] = experiment: Cell viability assay (MTT), MDA-MB-231; assay type: cell-based, human; conditions: 10% FBS, 6-day treatment, 1% DMSO, read-out: IC50 μM, MDA-MB-231
Description: as §1, §3, §4, §5, §2

NIH 3T3 = experiment: Cell viability assay (MTT), NIH 3T3; assay type: cell-based, mouse; conditions: 10% FBS, 6-day treatment, 1% DMSO
Description: as §1, §5, §2

NIH3T3 = experiment: Boyden chamber migration assay, NIH3T3; assay type: cell-based, mouse; conditions: FBS as chemoattractant
Description: (§6) FIG. 4: Migration assays. (A) Wound healing assay in REF cells. 7.6 10^4 cells were plated on coverslips 48 hours before the experiment. The cells were pre-treated for 30 min. with the compounds, and then a scrape was done using a pipette tip. The scraped coverslips in treatment medium were put under a thermostated microscope coupled to a video camera. Movies were analyzed as described in material and methods, and velocity and total distance covered by the cells were evaluated. Bar graphs represent the mean±SEM of 2 to 4 experiments. (B) Boyden chamber migration assay in HMEC1, NIH3T3 and MDA-MB-231 cells. 5 10^4 to 7.5 10^4 Cells, resuspended in culture medium with or without FBS and with different compound concentrations, were seeded in the upper Boyden blind well on top of 8 μm pore-sized filters. The ability of the cells to migrate through the filter was assayed in the absence or presence of FBS in the lower Boyden chamber. After 16 hours incubation, the medium was removed and replaced with calcein-AM containing medium. After labeling, cells were washed with HBSS and fluorescence was read in a fluorescence plate reader. Fluorescence values were normalized against the fluorescence obtained for the 1% DMSO control. The data plotted are the means±SEM of 2 to 4 independent experiments.
(§7) An essential characteristic of malignant cells is their ability to migrate, invade host tissues and to produce metastases. In order to evaluate the capacity of one compound to affect the ability of tumoral cells to migrate, migration assays were performed using highly invasive tumoral cells MDA-MB-231, endothelial cells HMEC1 or fibroblastic cells NIH3T3. This assay was performed using Falcon HTS Fluoroblock inserts. Culture medium containing Fetal Bovine Serum (FBS; which is used as a chemoattractant) was added to the plate wells and 2 10^4 to 7.5 10^4 cells resuspended in medium without FBS and with 0.1% BSA were added to each insert well. The compound of interest was added to the medium in both the upper and the lower chambers. Plates were incubated for 16 hours at 37° C. Following incubation, the medium was removed from the upper chamber and the entire insert plate was transferred to a second 24-well plate containing 4 μg/ml Calcein-AM™ in medium containing 0.1% BSA. The plates were incubated for one hour at 37° C., rinsed with Hanks Buffered Saline (HBSS). Fluorescence data were collected using Fluoroskan Ascent FL fluorescence plate reader at an excitation wavelength (Ex) of 485 nm and emission wavelength (Em) of 517 nm. Only those labelled cells that passed through the Matrigel layer and the membrane were detected. Data were analyzed using the GraphPad Prism software and IM50s (dose at which 50% inhibition of cell migration is observed) were calculated.

HMEC-1 cells = experiment: Tubule formation (tubulogenesis) assay on Matrigel; assay type: cell-based, Human
Description: FIG. 5: Tubulogenesis assay (number of junctions). 2 10^4 Cells were plated on Matrigel-coated wells as described in the material and methods. Pictures of each well were taken after a 7-hours incubation. The “number of junctions” parameter was quantitated using the AngioSys software and data were analyzed using GraphPad Prism for IT50 calculation. Values represent the mean±SEM of 2 to 30 independent experiments.
The endothelial cell tube formation assay, or tubulogenesis assay, is an in vitro assay that is widely accepted to accurately reflect number of terminal stages of the angiogenic process such as attachment, migration and differentiation into tubular structures. In this model, endothelial cells are cultured on a monolayer of reconstituted basement membrane components (Matrigel) and form, in a few hours, capillary-lilke structure. Therefore, this system is a useful and powerful tool for rapidly screening anti-angiogenic agents by monitoring inhibition of endothelial cells morphogenesis on extracellular matrix.
HMEC-1 cell line is cultured in MCDB-131 medium (Sigma) supplemented with 15% FBS, 10 ng/ml recombinant human epidermal growth factor (Invitrogen) and 1 μg/ml hydrocortisone. Cells are cultured to 70-80% confluence. A 96-well plate was coated with Matrigel® Basement Membrane Matrix (Becton Dickinson). 2 10^4 HMEC-1 cells were seeded into each well. The test or control compounds were diluted in DMSO and added to the coated plate. The plate was subsequently incubated for 6 to 8 hours at 37° C., 5% CO2 atmosphere to allow tubule formation. The cells were then incubated with 1.25 μg/ml Calcein AM for 15 minutes at 37° C., 5% CO2. Pictures of each well were taken using a fluorescent microscope and a digital camera (Nikon Coolpix 990). Images were analysed using AngioSys software (TCS Cellworks) that allows quantification of the total tubule length and of the number of junctions, two parameters representative of tubule formation/disruption. Data was analyzed using the GraphPad Prism software, and IT50s (dose leading to 50% inhibition of tubulogenesis) was calculated.

DLD1 = experiment: Cell viability assay (MTT), DLD1; assay type: cell-based; conditions: Homo sapiens, DLD-1, 72 h, 10% FBS, 3-day treatment, 1% DMSO
Description: as §4, §2

MDA-MB-231 [2] = experiment: Boyden chamber migration assay, MDA-MB-231; assay type: cell-based, human; conditions: FBS as chemoattractant; 16 hours
Description: as §6, §7

MCF7 = experiment: Cell viability assay (MTT), MCF7; assay type: cell-based; conditions: Homo sapiens, MCF7, 144 h, 10% FBS, 6-day treatment, 1% DMSO
Description: as §1, §4, §2

[3] = Homo sapiens, HCT-116, 144 h, 10% FBS, 6-day treatment
[4] = Homo sapiens, MDA-MB-231, 144 h

IC50 (MDA-MB-231 [1]) [µM] | IC50 (HCT116; [3]) [µM] | IC50 (MDA-MB-231 [1]; [4]) [µM] | SMILES | IC50 (HMEC1) [µM] | IC50 (HCT116; 10% FBS, 6-day treatment) [µM] | IC50 (HMEC1; Homo sapiens, HMEC-1, 144 h) [µM] | IC50 (NIH 3T3; Mus musculus, NIH3T3, 144 h) [µM] | also measured
5 | < 4 | < 9 | O=c1cc(CN2CCOCC2)occ1OCc1ccc(CSc2ccnc3cc(C(F)(F)F)ccc23)cc1 [EHT 2218, 5-((4-((7-(Trifluoromethyl)quinolin-4-ylthio)methyl)phenyl)methoxy)-2-(morpholinomethyl)-4H-pyran-4-one] |  | 3.7 | 19.3 | 26 | IC50 (HCT116; Homo sapiens, HCT-116, 144 h, 0.5% FBS, 6-day treatment): 3.3 µM; fold more active than reference compound CAI in tubulogenesis (HMEC-1 cells; HMEC1 on Matrigel): 4 fold; IC50 (HMEC-1 cells; Homo sapiens, HMEC-1, HMEC1 on Matrigel, 6 to 8 hours, read-out: IC50, tubulogenesis (number of junctions)): 30.8 µM
 |  |  | O=c1[nH]cc(F)c(=O)[nH]1 [5FU, 5-FluoroUracile, reference compound] |  |  |  |  | IC50 (HCT116; Homo sapiens, HCT-116, 72 h, 10% FBS, 3-day treatment): 7.83 µM; IC50 (DLD1): 5.44 µM
 |  |  | CN1CCN(Cc2cc(=O)c(OCCCCCSc3ccnc4cc(C(F)(F)F)ccc34)co2)CC1 [EHT 7365, 2-(4-Methyl-piperazin-1-ylmethyl)-5-[5-(7-trifluoromethyl-quinolin-4-ylsulfanyl)-pentyloxy]-4H-pyran-4-one] | 8.3 | 5.4 |  | 6.5 | IC50 (NIH3T3; 16 hours): 6.1 ± 1.1 µM; IC50 (MDA-MB-231 [2]): 3.9 ± 0.8 µM
8.8 |  | < 9 | CCN(CC)C(=O)N1CCN(Cc2cc(=O)c(OCCCCCSc3ccnc4cc(C(F)(F)F)ccc34)co2)CC1 [EHT 5743, 4-((5-(5-(7-(Trifluoromethyl)quinolin-4-ylthio)pentyloxy)-4-oxo-4H-pyran-2-yl)methyl)-N,N-diethylpiperazine-1-carboxamide] | 8 |  | < 10 | 2.4 | difference of activity in HMEC1 cells as compared to HCT116 cells (HMEC1; MTT 6 days, compounds most active in HCT116): 20 fold; IC50 (MCF7): 1.2 µM
 | 18.9 | 22.5 | Cc1[nH]c(/C=C2\C(=O)Nc3ccccc32)c(C)c1CCC(=O)O [SU-6668, reference compound] |  |  | 36 | 35.7 | potency in tubulogenesis assay (HMEC-1 cells; VEGF and FGF free conditions): weakly potent

SMILES | IC50 (MDA-MB-231 [1]) [µM] | IC50 (HCT116; [3]) [µM] | IC50 (MDA-MB-231 [1]; [4]) [µM] | IC50 (HMEC1) [µM] | IC50 (HCT116; 10% FBS, 6-day treatment) [µM] | IC50 (HMEC1; Homo sapiens, HMEC-1, 144 h) [µM] | IC50 (NIH 3T3; Mus musculus, NIH3T3, 144 h) [µM] | also measured
O=c1cc(CN2CCOCC2)occ1OCCCCCSc1ccnc2cc(C(F)(F)F)ccc12 [EHT 7168, 2-Morpholin-4-ylmethyl-5-[5-(7-trifluoromethyl-quinolin-4-ylsulfanyl)-pentyloxy]-4H-pyran-4-one] | 9.8 |  |  | 25.2 | 4.9 |  |  | IC50 (NIH 3T3): 12.7 µM; IC50 (NIH3T3; Mus musculus, NIH3T3, 16 h): 16.4 ± 3.4 µM
